Assay results: patent US8974823B2, “Solid compositions of low-solubility drugs and poloxamers” (Bend Research, Inc., priority 2003, dated 2015)
Where a name gives a salt, the structure may show the parent alone. Blank lines part the entries; values can stand above or below the molecule they belong to.

What was measured:
[1] = in vitro dissolution test of Drug 5 particles in MFD solution; assay type: physicochemical; conditions: dose 120 μg/mL; for Drug 5 Concentration: 37° C.
[2] = as above; assay type: physicochemical; conditions: dose 120 μg/mL; for AUC / Drug 5 Concentration: MFD solution; for Drug 5 Concentration: 37° C.
Experimental: (§1) The solid compositions of Examples 1-2 were evaluated in an in vitro dissolution test to ascertain concentration enhancement of Drug 1. A […] sample of each solid composition was added in duplicate to a microcentrifuge tube, so that the total concentration of Drug 1 would have been 2000 μg/mL if all of the drug had dissolved. The tubes were placed in a 37° C. temperature-controlled chamber, and 1.8 mL PBS containing 0.5 wt % sodium taurocholic acid and 1-palmitoyl-2-oleyl-sn-glycero-3-phosphocholine (NaTC/POPC, with a 4/1 weight ratio) at pH 6.5 and 290 mOsm/kg (simulating a Model Fasted Duodenal solution) was added to each respective tube. The samples were quickly mixed using a vortex mixer for about 60 seconds. The samples were centrifuged at 13,000 G at 37° C. for 1 minute. The resulting supernatant solution was then sampled and diluted 1:6 (by volume) with methanol and then analyzed by high-performance liquid chromatography (HPLC). The contents of each respective tube were mixed on a vortex mixer and allowed to stand undisturbed at 37° C. until the next sample was taken. Samples were collected at 4, 10, 20, 40, 90, and 1200 minutes.
The so-formed particles were tested in vitro to ascertain concentration enhancement of Drug 5 as in Examples 1-2 at a dose of 120 μg/mL. Control C9 consisted of amorphous Drug 5 alone.
The concentration of drug obtained in these samples were used to determine the Cmax90 during the initial 90 minutes.

[3] = in vitro dissolution test of Drug 3 compositions in PBS; assay type: physicochemical; conditions: for AUC / Drug 3 Concentration: 1000 μg/mL if all dissolved; for Drug 3 Concentration: 37° C.
[4] = glass transition temperature (Tg) of the drug; assay type: physicochemical; conditions: Table B; unless noted Tg measured at less than 10% RH
Experimental: In a first aspect, the invention comprises a solid composition comprising a plurality of particles. The particles comprise a low-solubility drug and a poloxamer. The drug is in intimate contact with the poloxamer in the particles. Collectively, the drug and poloxamer constitute at least 50 wt % of the particles. At least a substantial portion of the drug in the composition is amorphous. The Tg of the drug is at least 50° C. Unless otherwise noted, as used herein the Tg refers to the Tg measured at less than 10% RH.
Such Tg values may represent that of drug dispersed in the amorphous portions of the poloxamer or the Tg of drug-rich phases or domains. […] The Tg of the drug may be at least about 60° C., at least about 70° C., or even at least about 80° C. The Tg of a drug can be determined using standard analytical techniques well known in the art, including by a dynamic mechanical analyzer (DMA), a dilatometer, a dielectric analyzer, and by differential scanning calorimetry (DSC).

Log P of the drug = conditions: octanol/water, Log P
Text: A common measure of hydrophobicity is Log P, defined as the base 10 logarithm of the ratio of the drug solubility in octanol to the drug solubility in water. Log P may be measured experimentally or calculated using methods known in the art.

[5] = in vitro dissolution test of Drug 1 compositions in Model Fasted Duodenal solution; assay type: physicochemical; conditions: for AUC: MFD solution; for AUC / Drug 1 Concentration: 2000 μg/mL if all dissolved; for Drug 1 Concentration: MFD solution pH 6.5, 37° C.
Experimental: as §1
As a control (C1), a sample of crystalline Drug 1 alone was tested in the same manner so that the concentration of Drug 1 in MFD solution would have been 2000 μg/mL if all of the drug had dissolved.
The concentrations of drug obtained in these samples were used to determine the maximum drug concentration (“MDC90”) and the area under the concentration-versus-time curve (“AUC90”) during the initial 90 minutes.

[6] = in vitro dissolution test of Drug 2 compositions in Model Fasted Duodenal solution; assay type: physicochemical; conditions: for AUC / Drug 2 Concentration: MFD solution, 200 μg/mL if all dissolved; for Drug 2 Concentration: 37° C.
Experimental: as §1
Examples 3-4 were tested by in vitro dissolution tests to ascertain concentration enhancement of Drug 2 as in Examples 1-2, except that a sufficient amount of material was added to the Model Fasted Duodenal solution to obtain a drug concentration of 200 μg/mL if all of the drug dissolved. As a control (C2), crystalline Drug 2 alone was used.
The concentrations of drug obtained in these samples were used to determine the MDC90 and the AUC90 during the initial 90 minutes.

[7] = Drug 5, MFDS, initial 90 minutes

Compound: Cc1c(O)cccc1C(=O)N[C@@H](CSc1ccccc1)[C@H](O)CN1C[C@H]2CCCC[C@H]2C[C@H]1C(=O)NC(C)(C)C [Example C3, nelfinavir mesylate]
- AUC90 ([3]; Drug 3, initial 90 minutes): 400 µg·min/mL
- Cmax90 ([3]; Drug 3, initial 90 minutes (MDC90 in the text)): 6000 ng/mL
- AUC ([3]; Drug 3, time 0 min): 0 µg·min/mL
- AUC ([3]; Drug 3, time 4 min): 0 µg·min/mL
- AUC ([3]; Drug 3, time 10 min): 0 µg·min/mL
- AUC ([3]; Drug 3, time 20 min): 100 µg·min/mL
- AUC ([3]; Drug 3, time 40 min): 200 µg·min/mL
- AUC ([3]; Drug 3, time 90 min): 400 µg·min/mL
- AUC ([3]; Drug 3, time 1200 min): 5100 µg·min/mL
- Drug 3 Concentration ([3]; time 0 min): 0 µg/mL
- Drug 3 Concentration ([3]; time 4 min): 5 µg/mL
- Drug 3 Concentration ([3]; time 10 min): 5 µg/mL
- Drug 3 Concentration ([3]; time 20 min): 6 µg/mL
- Drug 3 Concentration ([3]; time 40 min): 6 µg/mL
- Drug 3 Concentration ([3]; time 90 min): 4 µg/mL
- Drug 3 Concentration ([3]; time 1200 min): 5 µg/mL

Compound: CCCc1nn(C)c2c(=O)[nH]c(-c3cc(S(=O)(=O)N4CCN(C)CC4)ccc3OCC)nc12 [1-[4-ethoxy-3-(6,7-dihydro-1-methyl-7-oxo-3-propyl-1H-pyrazolo[4,3-d]pyrimidin-5-yl)phenylsulphonyl]-4-methylpiperazine]
- Tg [4]: 135 °C
- logP (Log P of the drug): 7

Compound: CC[C@@H]1C[C@H](N(Cc2cc(C(F)(F)F)cc(C(F)(F)F)c2)C(C)=O)c2cc(C(F)(F)F)ccc2N1C(=O)OC(C)C [[2R,4S] 4-[acetyl-(3,5-bis-trifluoromethyl-benzyl)-amino]-2-ethyl-6-trifluoromethyl-3,4-dihydro-2H-quinoline-1-carboxylic acid isopropyl ester]
- logP (Log P of the drug): 6.9

Compound: CCC(CC)Nc1cc(C)nc(Oc2c(C)cc(C)cc2C)c1C [[3,6-dimethyl-2-(2,4,6-trimethyl-phenoxy)-pyridin-4-yl]-(1-ethyl-propyl)-amine]
- logP (Log P of the drug): 7

Now from value to molecule:

- AUC ([1]; Drug 5, time 0 min): 0 µg·min/mL
- AUC ([1]; Drug 5, time 3.5 min): 5 µg·min/mL
- AUC ([1]; Drug 5, time 7.25 min): 17 µg·min/mL
- AUC ([1]; Drug 5, time 11 min): 34 µg·min/mL
- AUC ([1]; Drug 5, time 20 min): 96 µg·min/mL
- Drug 5 Concentration ([1]; time 3.5 min): 2.8 µg/mL
- Drug 5 Concentration ([1]; time 7.25 min): 3.8 µg/mL
- Drug 5 Concentration ([1]; time 11 min): 5.3 µg/mL
- Drug 5 Concentration ([1]; time 20 min): 8.4 µg/mL
- AUC90 [2, 7]: 1,400 min * μg/mL
- Cmax90 [2, 7]: 29000 ng/mL
- AUC ([2]; Drug 5, time 40 min): 330 µg·min/mL
- AUC ([2]; Drug 5, time 90 min): 1,400 min * μg/mL
- AUC ([2]; Drug 5, time 1200 min): 60,700 min * μg/mL
- Drug 5 Concentration ([2]; time 0 min): 0 µg/mL
- Drug 5 Concentration ([2]; time 40 min): 15 µg/mL
- Drug 5 Concentration ([2]; time 90 min): 29 µg/mL
- Drug 5 Concentration ([2]; time 1200 min): 78 µg/mL
Compound: CCc1cc(Oc2cccc(N(Cc3cccc(OC(F)(F)C(F)F)c3)C[C@@H](O)C(F)(F)F)c2)ccc1Cl [Example C9, (2R)-3-[[3-(4-chloro-3-ethylphenoxy)phenyl][[3-(1,1 ,2,2-tetrafluoroethoxy)phenyl]methyl]amino]-1,1,1-trifluoro-2-propanol]

- AUC90 ([5]; Drug 1, MFD, initial 90 minutes): 21,600 min * μg/mL
- MDC90 ([5]; Drug 1, MFD, maximum drug concentration during initial 90 minutes): 255 µg/mL
- AUC ([5]; Drug 1, time 0 min): 0 µg·min/mL
- AUC ([5]; Drug 1, time 4 min): 400 µg·min/mL
- AUC ([5]; Drug 1, time 10 min): 1700 µg·min/mL
- AUC ([5]; Drug 1, time 20 min): 4100 µg·min/mL
- AUC ([5]; Drug 1, time 40 min): 9000 µg·min/mL
- AUC ([5]; Drug 1, time 90 min): 21,600 min * μg/mL
- AUC ([5]; Drug 1, time 1200 min): 299,000 min * μg/mL
- Drug 1 Concentration ([5]; time 0 min): 0 µg/mL
- Drug 1 Concentration ([5]; time 4 min): 204 µg/mL
- Drug 1 Concentration ([5]; time 10 min): 227 µg/mL
- Drug 1 Concentration ([5]; time 20 min): 243 µg/mL
- Drug 1 Concentration ([5]; time 40 min): 250 µg/mL
- Drug 1 Concentration ([5]; time 90 min): 255 µg/mL
- Drug 1 Concentration ([5]; time 1200 min): 244 µg/mL
Compound: O=C(N[C@@H](Cc1ccccc1)[C@@H](O)C(=O)N1C[C@@H](O)[C@@H](O)C1)c1cc2cc(Cl)ccc2[nH]1 [Example C1, 5-chloro-1H-indole-2-carboxylic acid [(1S)-benzyl-(2R)-hydroxy-3-((3R,4S)-dihydroxy-pyrrolidin-1-yl-)-3-oxypropyl]amide]

- AUC90 ([6]; Drug 2, MFD, initial 90 minutes): 100 µg·min/mL
- Cmax90 ([6]; Drug 2, MFD, initial 90 minutes (MDC90 in the text)): 1000 ng/mL
- AUC ([6]; Drug 2, time 0 min): 0 µg·min/mL
- AUC ([6]; Drug 2, time 4 min): 0 µg·min/mL
- AUC ([6]; Drug 2, time 10 min): 0 µg·min/mL
- AUC ([6]; Drug 2, time 20 min): 0 µg·min/mL
- AUC ([6]; Drug 2, time 40 min): 0 µg·min/mL
- AUC ([6]; Drug 2, time 90 min): 100 µg·min/mL
- AUC ([6]; Drug 2, time 1200 min): 3400 µg·min/mL
- Drug 2 Concentration ([6]; time 0 min): 0 µg/mL
- Drug 2 Concentration ([6]; time 4 min): 1 µg/mL
- Drug 2 Concentration ([6]; time 10 min): 1 µg/mL
- Drug 2 Concentration ([6]; time 20 min): 0 µg/mL
- Drug 2 Concentration ([6]; time 40 min): 0 µg/mL
- Drug 2 Concentration ([6]; time 90 min): 1 µg/mL
- Drug 2 Concentration ([6]; time 1200 min): 5 µg/mL
Compound: Cc1ncccc1CNC(=O)c1ccc2c(c1)CC[C@@H]1C[C@@](O)(CCC(F)(F)F)CC[C@@]21Cc1ccccc1 [Example C2, 2-phenanthrenecarboxamide,4b,5,6,7,8,8a,9,10-octahydro-7-hydroxy-N-[(2-methyl-3-pyridinyl)methyl]-4b-(phenylmethyl)-7-(3,3,3-trifluoropropyl)-, (4bS,7S,8aR)-]
